Assay results reported in ChEMBL document CHEMBL4196101, “Dual Leucine Zipper Kinase Inhibitors for the Treatment of Neurodegeneration” (J Med Chem, 2018).

Target: Mitogen-activated protein kinase kinase kinase 12 (Homo sapiens) (UniProt Q12852)
Assay: Inhibition of DLK (unknown origin) using myelin basic protein as substrate preincubated for 15 mins measured after 30 mins in presence of [gamma-32P]ATP by scintillation counting

Sequence of Mitogen-activated protein kinase kinase kinase 12 (Homo sapiens) (Q12852 whole entry, looked up): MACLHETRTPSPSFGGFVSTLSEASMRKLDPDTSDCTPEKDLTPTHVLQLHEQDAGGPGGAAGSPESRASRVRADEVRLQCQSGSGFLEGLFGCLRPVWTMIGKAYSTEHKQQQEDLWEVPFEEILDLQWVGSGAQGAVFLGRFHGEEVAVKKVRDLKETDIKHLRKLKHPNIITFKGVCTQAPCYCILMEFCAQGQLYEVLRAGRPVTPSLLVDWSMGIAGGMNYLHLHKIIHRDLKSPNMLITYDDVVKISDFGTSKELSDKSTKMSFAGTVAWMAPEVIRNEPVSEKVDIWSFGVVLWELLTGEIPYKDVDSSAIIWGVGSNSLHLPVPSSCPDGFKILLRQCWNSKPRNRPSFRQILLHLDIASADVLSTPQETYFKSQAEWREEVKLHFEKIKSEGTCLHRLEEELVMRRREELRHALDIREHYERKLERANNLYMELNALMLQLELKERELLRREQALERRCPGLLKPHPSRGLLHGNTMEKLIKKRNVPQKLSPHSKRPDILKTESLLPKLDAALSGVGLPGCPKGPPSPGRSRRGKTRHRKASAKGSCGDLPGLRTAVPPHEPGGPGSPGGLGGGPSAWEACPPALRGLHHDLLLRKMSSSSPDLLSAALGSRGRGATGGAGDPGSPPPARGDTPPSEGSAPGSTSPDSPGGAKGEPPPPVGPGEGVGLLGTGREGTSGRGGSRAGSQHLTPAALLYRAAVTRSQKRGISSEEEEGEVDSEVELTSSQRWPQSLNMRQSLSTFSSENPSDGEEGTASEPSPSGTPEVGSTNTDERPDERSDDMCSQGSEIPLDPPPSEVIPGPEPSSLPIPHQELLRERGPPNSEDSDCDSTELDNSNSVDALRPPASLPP

- IC50: 114 nM
Structure (SMILES): CCSCc1ccc2c(c1)c1c3c(c4c5cc(CSCC)ccc5n5c4c1n2[C@H]1C[C@](O)(C(=O)OC)[C@]5(C)O1)CNC3=O [CEP-1347]
